Measured values taken from paper PMC7582770, “Synthesis of “All-Cis” Trihydroxypiperidines from a Carbohydrate-Derived Ketone: Hints for the Design of New β-Gal and GCase Inhibitors” (Molecules, 2020).
Entries after “also recorded” stand apart in the source; their conditions may differ.

Experiments:
[1] = target: T1, human lysosomal β-galactosidase (β-Gal) (Homo sapiens, UniProt P16278); assay: β-Gal inhibition in human leukocyte homogenates; format: biochemical; conditions: compounds 1 mM; human leukocytes extracts
T1 construct: in leukocytes isolated from healthy donors (controls); endogenous in cells; host or cells: human leukocytes from healthy donors, disrupted by sonication (crude homogenate)
T1 sequence (P16278 29-677): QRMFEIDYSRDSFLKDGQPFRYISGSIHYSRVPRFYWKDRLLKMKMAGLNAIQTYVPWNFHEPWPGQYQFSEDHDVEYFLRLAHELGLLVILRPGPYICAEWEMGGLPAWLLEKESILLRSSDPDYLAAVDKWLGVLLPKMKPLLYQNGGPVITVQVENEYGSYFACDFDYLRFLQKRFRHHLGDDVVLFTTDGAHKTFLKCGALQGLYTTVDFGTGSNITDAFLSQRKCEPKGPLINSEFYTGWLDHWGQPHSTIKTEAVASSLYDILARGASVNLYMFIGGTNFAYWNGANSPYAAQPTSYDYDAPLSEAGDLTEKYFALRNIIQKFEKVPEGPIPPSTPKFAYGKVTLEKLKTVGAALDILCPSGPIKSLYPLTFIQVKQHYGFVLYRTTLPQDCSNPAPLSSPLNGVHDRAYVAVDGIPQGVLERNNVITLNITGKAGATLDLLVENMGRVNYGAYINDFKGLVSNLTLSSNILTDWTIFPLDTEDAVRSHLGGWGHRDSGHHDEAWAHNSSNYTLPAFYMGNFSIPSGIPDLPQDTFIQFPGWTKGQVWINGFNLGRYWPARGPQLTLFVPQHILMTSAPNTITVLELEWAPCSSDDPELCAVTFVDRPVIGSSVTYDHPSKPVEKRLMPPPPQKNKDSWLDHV
Experimental: The new compounds were screened at 1 mM concentration towards β-galactosidase (β-Gal) and β-glucosidase (GCase) in leukocytes isolated from healthy donors (controls). Isolated leukocytes were disrupted by sonication, and a Micro BCA Protein Assay Kit (Sigma–Aldrich, St. Louis, MO, USA) was used to determine the total protein amount for the enzymatic assay, according to the manufacturer’s instructions.
β-Gal activity was measured in a flat-bottomed 96-well plate. Azasugar solution (3 μL), 4.29 μg/μL leukocytes homogenate 1:10 (7 μL), and substrate 4-methylumbelliferyl β-D-galactopyranoside (1.47 mM, 20 μL, Sigma–Aldrich) in acetate buffer (0.1 M, pH 4.3) containing NaCl (0.1 M) and sodium azide (0.02%) were incubated at 37 °C for 1 h. The reaction was stopped by addition of sodium carbonate (200 μL; 0.5 M, pH 10.7) containing Triton X-100 (0.0025%), and the fluorescence 4-methylumbelliferone released by β-galactosidase activity was measured in SpectraMax M2 Microplate Reader (λex = 365 nm and λem = 435 nm; Molecular Devices LLC, San Jose, CA, US). Inhibition is given with respect to the control (without azasugar). Data are mean SD (n = 3).

[2] = tested on: human fibroblasts derived from Gaucher patients; assay: Toxicity / cell viability in Gaucher patient fibroblasts during chaperoning assay; format: cell-based; conditions: at 50 and 100 µM, 4 days
Experimental: Fibroblasts with the N370S/RecNcil mutation from patients with Gaucher disease were obtained from the “Cell line and DNA Biobank from patients affected by Genetic Diseases” (Gaslini Hospital, Genova, Italy). Fibroblasts cells (15.0 × 10^4) were seeded in T25 flasks with DMEM supplemented with fetal bovine serum (10%), penicillin/streptomycin (1%), and glutamine (1%) and incubated at 37 °C with 5% CO2 for 24 h. The medium was removed, and fresh medium containing compound 10 was added to the cells and left for 4 days. The medium was removed, and the cells were washed with PBS and detached with trypsin to obtain cell pellets, which were washed four times with PBS, frozen, and lysed by sonication in water. Enzyme activity was measured as reported above. Reported data are mean S.D. (n = 2).
Pharmacological chaperoning activity
Fibroblasts with the N370S/RecNcil mutation from Gaucher disease patients were obtained from the “Cell line and DNA Biobank from patients affected by Genetic Diseases” (Gaslini Hospital, Genova, Italy). Fibroblasts cells (20.0 x 104) were seeded in T25 flasks with DMEM supplemented with fetal bovine serum (10%), penicillin/streptomycin (1%), and glutamine (1%) and incubated at 37 °C with 5% CO2 for 24 h. […] Enzyme activity was measured as reported above. […]

Compound	inhibition at 1000 µM [1] [%]	melting point [°C]	toxicity / cell viability [2]
CCCCCCCCCO[C@H]1CNC[C@@H](O)[C@H]1O [compound 9, (3S, 4R, 5R)-4,5-Dihydroxy-3-(Nonyloxy) Piperidine]	22	–	–
CCCCCCCCCCCCN[C@H]1CNC[C@@H](O)[C@H]1O [compound 10, (3R, 4S, 5S)-3,4-Dihydroxy-5-(Dodecylamino) Piperidine]	0	92 to 94	low cell viability; also recorded: remarkable toxicity
CCCCCCCC[C@]1(O)CNC[C@@H](O)[C@H]1O [compound 12, (3S, 4R, 5R)-3,4,5-Trihydroxy-3-Octyl-Piperidine]	0	–	–
CCCCCCCCCO[C@@H]1CNC[C@@H](O)[C@H]1O [compound 21, (3R, 4R, 5R)-4,5-Dihydroxy-3-(Nonyloxy) Piperidine]	0	–	–
